From patent publication US10905691B2, “Use of triazolo(4,5-d)pyrimidine derivatives for prevention and treatment of bacterial infection” (Universite de Liege, priority 2016, dated 2021)
Read-outs that look alike come from different tables or passages of the source.

Legend:
[1] = test system: Staphylococcus epidermidis (ATCC 35984, also known as RP62A); assay: MIC determination (EUCAST, Mueller-Hinton broth); assay type: cell-based
Description: (§1) The Minimal Inhibitory Concentration (MIC) and the Minimal Bactericidal Concentration (MBC) of Triafluocyl were determined in Staphylococcus epidermidis (ATCC 35984, also known as RP62A) according to EUCAST (European Committee on Antimicrobial Susceptibility Testing) recommendations.
Briefly, a single colony grown on a Tryptic Soy Agar (TSA) plate was resuspended and cultured in Tryptic Soy Broth (TSB) overnight (O/N) in aerobic conditions (37° C. with 220 rpm shaking), next day a 1:50 inoculum in Mueller-Hinton broth (MHB) was incubated in aerobic conditions for 3 hr and an inoculum of 1:100 dilution, corresponding to 3×10^5 CFU/ml, was incubated in presence or absence of different concentrations of Triafluocyl in 1% DMSO (vehicle). After O/N growth the OD of each culture was measured at 600 nm in a spectrophotometer (OD600). The MIC represents the concentration at which there is no visible growth of bacteria, i.e. ΔOD at 600 nm equal to zero (blank is the medium alone).
The Minimal Inhibitory Concentration (MIC) and the Minimal Bactericidal Concentration (MBC) of Fluometacyl were determined on several gram-positive strains (Table 2) following EUCAST (European Committee on Antimicrobial susceptibility Testing) recommendations.
For MIC determination a single colony was resuspended and cultured in the appropriate bacteria-specific medium (TSB: Tryptic Soy Broth for S. aureus atcc 25904 and S. epidermidis and BHI: brain-heart infusion medium for all the other strains) overnight (O/N) in aerobic conditions (37° C. with 220 rpm shaking), next day a 1:100 inoculum was incubated in Mueller-Hinton broth (MHB) in aerobic conditions for 3 hr (OD600=0.08-0.1). A further inoculum, 1:300 dilution of the MHB culture, corresponding to 3×10^5 CFU/ml, was grown in presence or absence of different concentrations of Fluometacyl, 1% DMSO in MHB for 20 hr.

[2] = test system: E. faecalis vancomycin-resistant (VRE) ATCC BAA-2365; assay: MIC determination (EUCAST, Mueller-Hinton broth); assay type: cell-based; conditions: Enterococcus faecalis
Description: Further experiments were conducted using different strains of E. faecalis, as clinically relevant Gram-positive bacterial strains: E. faecalis vancomycin-resistant (VRE) ATCC BAA-2365, and E. faecalis ATCC 29212 in order to determine the Minimal Inhibitory Concentration (MIC) which is the minimal concentration required to prevent bacterial growth; the Minimal Bactericidal Concentration (MBC) which determines the lowest concentration at which an antimicrobial agent kill a particular microorganism and a Minimum Duration for killing 99.9% bacteria (MDK99.9) which is a tolerance metric according to the EUCAST.
MIC determination: A single colony selected from the different strains of E. faecalis is resuspended and cultured in the appropriate medium overnight (O/N) in aerobic conditions (37° C. with 220 rpm shaking), next day a 1:100 inoculum in Mueller-Hinton broth (MHB) was incubated in aerobic conditions for 3 hr (OD=0.08-0.1) and an inoculum of 1:300 dilution, corresponding to 3×10^5 CFU/ml, was incubated in presence or absence of different concentrations of Triafluocyl in 1% DMSO. […]
The Minimal Inhibitory Concentration (MIC) and the Minimal Bactericidal Concentration (MBC) of Fluometacyl were determined on several gram-positive strains (Table 2) following EUCAST (European Committee on Antimicrobial susceptibility Testing) recommendations. […]

[3] = test system: Staphylococcus epidermidis (ATCC 35984, also known as RP62A); assay: MBC and MDK99.9 determination; assay type: cell-based
Description: as §1
We have also determined the MBC, i.e. the concentration at which the liquid culture, when spread on TSA plates, will not produce any colony.
The Minimum Duration for killing 99.9% S. epidermidis (MDK99.9) by Triafluocyl, a tolerance metric according to the EUCAST, was 2 hours.
For MBC determination a 1:100 inoculum of an O/N culture (prepared like before) was incubated in aerobic conditions for 2 h in bacteria-specific medium. The culture was then challenged with Fluometacyl at the MIC concentration or higher. Bacterial growth was measured after different time intervals by counting the colony-forming units (CFU) after plating appropriate culture dilutions on bacteria-specific medium agar plates.

[4] = test system: S. aureus MRSA (ATCC BAA-1556); assay: Killing curve (CFU counting); assay type: cell-based, Staphylococcus aureus
Description: S. aureus MRSA (ATCC BAA-1556) was grown overnight in brain heart infusion (BHI) medium, diluted 1:100 in fresh BHI, and incubated aerobically at 37° C. until bacteria growth reached a logarithmic phase (OD600=0.25-0.3).
Triafluocyl (Cayman Chemical, Item No. 15425) (20 μg/ml), Vancomycin (Sigma, 4 μg/ml or 10 μg/ml), Minocycline (Sigma, 8 μg/ml) or a solvent (DMSO) were added to 5 ml of S. aureus MRSA suspensions.
Bacterial growth for S. aureus MRSA was measured after different time intervals by counting the colony-forming units after plating appropriate culture dilutions on BHI agar plates.
S. aureus MRSA (ATCC BAA-1556) was grown overnight in BHI medium, then a 1:100 inoculum was diluted in fresh BHI and incubated aerobically at 37° C. until bacteria growth reached a logarithmic phase (OD600=0.25-0.3). The culture was split into two and challenged with 38 μM Fluometacyl (=18.2 μg/ml) or DMSO (Ctrl). Bacterial growth was measured after different time intervals by counting the colony-forming units after plating appropriate culture dilutions on BHI agar plates. (N=2)

[5] = Staphylococcus epidermidis, ATCC35984, S. epidermidis, read-out: MIC

MIC ([1]; S. epidermidis) [µg/mL]	MIC [1, 5]	MIC [2]	SMILES	MBC ([3]; S. epidermidis) [µg/mL]	MDK 99.9 Time (h) needed to kill 99.9% of the started inoculum ([3]; S. epidermidis) [h]	MBC ([3]; Staphylococcus epidermidis, ATCC35984, S. epidermidis, read-out: MBC) [µg/mL]	effect on S. aureus MRSA viable count after the first two hours ([4]; Triafluocyl 20 μg/ml, Vancomycin 10-fold MIC, Minocycline 8-fold MIC, FIG. 8A)	MBC ([3]; Staphylococcus epidermidis, ATCC35984, S. epidermidis, cut-off 99.9% reduction in CFU, read-out: MBC) [µM]	bactericidal activity against S. aureus MRSA (time-kill) ([4]; 38 μM (=18.2 μg/ml), FIG. 9)
15	12 ± 3 µg/mL	20 µg/mL	CCCSc1nc(N[C@@H]2C[C@H]2c2ccc(F)c(F)c2)c2nnn([C@@H]3C[C@H](OCCO)[C@@H](O)[C@H]3O)c2n1 [Triafluocyl, (1S,2S,3R,5S)-3-[7-[(1R,2S)-2-(3,4-difluorophenyl)cyclopropylamino]-5-(propylthio)-3H-[1,2,3]-triazolo[4,5-d]pyrimidin-3-yl]-5-(2-hydroxyethoxy)-1,2-cyclopentanediol]	20	2	17 ± 3	decrease of S. aureus MRSA viable count	–	–
–	30 µM	38 µM	CCCSc1nc(N[C@@H]2C[C@H]2c2ccc(F)c(F)c2)c2nnn([C@@H]3C[C@H](O)[C@@H](O)[C@H]3O)c2n1 [Fluometacyl, (1S,2R,3S,4R)-4-[7-[[(1R,2S)-2-(3,4-Difluorophenyl)cyclopropyl]amino]-5-(propylthio)-3H-1,2,3-triazolo[4,5-d]pyrimidin-3-yl]-1,2,3-cyclopentanetriol]	–	–	–	–	38	bactericidal activity
